Measurements from US4904666A, “Pyrazolo(3,4-d)pyrimidine compounds, compositions and method of use” (Boehringer Mannheim GmbH, priority 1987, dated 1990).

These compounds were tested on passively sensitized strip of pulmonary parenchyma (guinea pig) (assay: inhibition of antigen-induced constriction of passively sensitized guinea pig pulmonary parenchyma strips in vitro (organ bath)). Settings: Cavia porcellus, 20 min; Superfusion; Concentration 10/μM (so in the source); test substance preincubated 20 minutes at 37° C., then ovalbumin constriction; percentage reduction of constriction amplitude vs untreated control constrictions.
Type: cell-based, guinea pig (Pirbright-White)
Description: Activity of the inventive compounds was shown by the following testing in vitro. […] The method employed was as described herewith:
Pirbright-White guinea pigs were stunned by a blow to the neck and bled. The lungs were flushed largely free of blood in situ with Krebs' buffer, pH 7.4.
Then the lung was removed, cut into strips (approx. 20×4×4 mm) and the strips were passively sensitized for one hour at room temperature with a 1:50 dilution of a homologous anti-ovalbumin antiserum and then washed once with Krebs' buffer.
The antiserum had previously been produced as described by Davies et al., (Quantitative studies on anaphylaxis in guinea pigs passively sensitized with homologous antibody. Inter. Arch. Allergy 41, 648-654 (1971)) in guinea pigs of the same strain by repeated injection of ovalbumin (2×crystallized) with the addition of complete Freund's adjuvant (Until it was used, the antiserum was stored undiluted at -18° C.).
Then the lung strips were fixed singly with one end to the bottom of 10-milliliter organ baths, and with the upper end to isometric measuring devices for the recording of the constrictions of the lung strips through an amplifier on a plotter. The tenseron was adjusted to 1.2 g weight.
Then the baths were filled with Krebs' buffer and continually gassed at 37° C. with O2 (95%) and CO2 (5%).
After a 30-minute equilibration phase, histamine control spasms were produced in order to establish the reactivity of the lung specimens, washed, then the test substance was preincubated for 20 minutes at 37° C., and the ovalbumin constriction was produced.
The inhibiting action of the compounds according to the invention was expressed as percentage reduction of the constriction amplitude of the "specimens with the test substance" in proportion to the "untreated control constrictions."

**Q.** Which inhibition at 10 µM does the source give for `COc1cccc(CN(c2ncnc3[nH]ncc23)C2CCCC2)c1` [Example 2d, 4-[N--(3-methoxybenzyl)-cyclopentylamino]-1H--pyrazolo[3,4-d]pyrimidine] here?
**A.** The inhibition at 10 µM was 36%.

**Q.** For `CCOC(=O)c1cccc(CN(c2ncnc3[nH]ncc23)C2CCCC2)c1` [Example 2g, 4-[N--(3-ethoxycarbonylbenzyl)-cyclopentylamino]-1H--pyrazolo[3,4-d]pyrimidine], which inhibition at 10 µM is on record?
**A.** Its inhibition at 10 µM is 40%.

**Q.** For `N#Cc1cccc(CN(c2ncnc3[nH]ncc23)C2CCCC2)c1` [Example 2i, 4-[N--(3-cyanobenzyl)-cyclopentylamino]-1H--pyrazolo[3,4-d]pyrimidine], which inhibition at 10 µM is on record?
**A.** Its inhibition at 10 µM is 35%.

**Q.** `Clc1ccc(Cl)c(CN(c2ncnc3[nH]ncc23)C2CCCC2)c1` [Example 2j, 4-[N--(2,5-dichlorobenzyl)-cyclopentylamino] -1H--pyrazolo[3,4-d]pyrimidine] was tested. Which inhibition at 10 µM did it give?
**A.** The inhibition at 10 µM was 29%.

**Q.** For `Clc1ccc(CN(c2ncnc3[nH]ncc23)C2CCCC2)cc1Cl` [Example 2k, 4-[N--(3,4-dichlorobenzyl)-cyclopentylamino]-1H--pyrazolo[3,4-d]pyrimidine], which inhibition at 10 µM is on record?
**A.** The inhibition at 10 µM was 32%.

**Q.** With `Cc1ccc(Cl)cc1CN(c1ncnc2[nH]ncc12)C1CCCC1` [Example 2l, 4-[N--(5-chloro-2-methylbenzyl)-cyclopentylamino]-1H--pyrazolo[3,4-d]pyrimidine] as the compound, how does the inhibition at 10 µM read?
**A.** Its inhibition at 10 µM is 32%.

**Q.** For `Cc1ccc(C)c(CN(c2ncnc3[nH]ncc23)C2CCCC2)c1` [Example 2n, 4-[N--(2,5-dimethylbenzyl)-cyclopentylamino]-1H--pyrazolo[3,4-d]pyrimidine], which inhibition at 10 µM is on record?
**A.** Its inhibition at 10 µM is 32%.

**Q.** Which inhibition at 10 µM does the source give for `c1coc(CN(c2ncnc3[nH]ncc23)C2CCCC2)c1` [Example 2o, 4-[N--(2-furylmethyl)-cyclopentylamino]-1H--pyrazolo[3,4-d]pyrimidine] here?
**A.** The inhibition at 10 µM was 39%.

**Q.** `c1csc(CN(c2ncnc3[nH]ncc23)C2CCCC2)c1` [Example 2p, 4-[N--(thiophen-2-ylmethyl)-cyclopentylamino]-1H--pyrazolo[3,4-d]pyrimidine] was tested. Which inhibition at 10 µM did it give?
**A.** The inhibition at 10 µM was 37%.

**Q.** With `OCC(O)Cn1ncc2c(N(Cc3cccc(C(F)(F)F)c3)C3CCCC3)ncnc21` (stereo not shown) [Example 4b, 4-[N--(3-trifluoromethylbenzyl)-cyclopentylamino]-1-(2,3-dihydroxypropyl)-1H--pyrazolo[3,4-d]pyrimidine] as the compound, how does the inhibition at 10 µM read?
**A.** The inhibition at 10 µM was 36%.
